Values of other authors as cited in US20260022280A1, “LOW VOC SOLVENT CEMENT FORMULATION WITH REDUCED TOXICITY AND RAPID CURING” (Ashirvad Pipes Pvt Ltd, priority 2022, published 2026).
Read-outs that look alike come from different tables or passages of the source.

What was measured:
[1] = for ECHA Concern: Yes / No
Rat [2] = settings: in vivo
[3] = total solubility parameter
[4] = solvents
Rat [5] = settings: 4 h
Mouse = settings: 4 h
Rat [6] = settings: Rat male and female

| SMILES | ECHA Concern [1] | Vapour Pressure (at 20° C.) | other results |
| --- | --- | --- | --- |
| CCOC(C)OCC [1,1 Diethoxy ethane] | Yes | 20.25 mm Hg | – |
| CCOCCOCC [1,2 Diethoxy ethane] | Yes | 9 mm Hg | – |
| C1COCO1 [1,3 Dioxolane] | – | – | LD50 (Rat [2]; po): 5200 mg/kg |
| CC1CCCO1 (stereo not shown) [2-Methyl tetrahydrofuran] | No | 102 mm Hg | – |
| CC(C)=O [ACE, Acetone] | No | 180 mm Hg | SPo (Total) [3]: 9.8 (Cal/cm^3)^1/2; Density [4]: 0.78 g/cc |
| CC(=O)CC(C)=O [Acetylacetone] | – | 2.96 mm Hg | – |
| O=C1CCCCC1 [CYH, Cyclohexanone] | No | 3.75 mm Hg | LD50 Inhalation (Rat [5]; Rat): 8000 ppm; LD50 Dermal (Rabbit): 947 mg/kg; LD50 Oral (Rat [2]): 1544 mg/kg; SPo (Total) [3]: 9.6 (Cal/cm^3)^1/2 |
| O=C1CCCC1 [Cyclopentanone] | No | 11.4 mm Hg | – |
| COC1CCCC1 [Cyclopentyl Methyl Ether] | No | – | Vapour Pressure ((25° C.)): 44.92 mm Hg |
| CCC(=O)CC [Diethyl ketone] | No | 15 mm Hg | – |
| COC(=O)OC [Dimethyl Carbonate] | No | – | Vapour Pressure ((25° C.)): 55.5 mm Hg |
| COC(=O)CCCCC(=O)OC [Dimethyl adipate] | No | 0.06 mm Hg | – |
| C[S+](C)[O-] [Dimethyl sulfoxide] | No | 0.44 mm Hg | – |
| CN(C)C=O [Dimethylformamide] | – | 3.67 mm Hg | – |
| CCO [Ethanol] | Yes | 43.5 mm Hg | – |
| CCOC(C)=O [Ethyl acetate] | No | 75 mm Hg | – |
| CCC(C)=O [MEK, Methyl Ethyl Ketone] | – | 15 mm Hg | Density [4]: 0.80 g/cc; LC50 Inhalation (Mouse): 32.000 mg/m3 |
| CCCC(C)=O [MPK, Methyl Propyl Ketone] | No | 12 mm Hg | LD50 Oral (Rat [2]): > 16000 mg/kg; SPo (Total) [3]: 9.6 (Cal/cm^3)^1/2; LD50 Dermal (Rat [6]): > 6480 mg/kg; Density [4]: 0.80 g/cc |
| CO [Methanol] | – | 96.75 mm Hg | – |
| CCCCCC(C)=O [Methyl amyl ketone] | No | 1.5 mm Hg | – |
| CC(=O)CCC(C)C [Methyl iso amyl ketone] | Yes | 4.5 mm Hg | – |
| CC(=O)C(C)C [Methyl iso propyl ketone] | No | 41.25 mm Hg | – |
| CN1CCCC1=O [N-Methyl-2-Pyrrolidone] | Yes | 0.29 mm Hg | – |
| CCCCOC(C)=O [N-butyl acetate] | No | – | – |
| CCN1CCCCCC1=O [N-ethyl caprolactam] | No | – | – |
| COC(C)=O [N-methylacetate] | Yes | 173 mm Hg | – |
| C1CCOC1 [THF, Tetrahydrofuran] | Yes | 145 mm Hg | Hazard Classification & labelling ([1]; ECHA, harmonised classification / REACH registrations): suspected to be Carcinogenic; LC50 Inhalation (Rat [5]; Rat male and female): 4 h −> 16.9 mg/l; Vapour Pressure (at 20° C., listed as Tetrahydrofuran): 144.76 mm Hg; Density [4]: 0.88 g/cc |
| CC(=O)OC(C)(C)C [t-butyl acetate] | No | – | Vapour Pressure ((25° C.)): 47.25 mm Hg |
| O=C1CCCO1 [γ-Butyrolactone] | No | 1.12 mm Hg | – |
